Assay [1] concerns the target T1, Beta-1 adrenergic receptor (Cavia porcellus, UniProt B0FL73). Briefly: Compound was tested for the biological activity at the Beta-1 adrenergic receptor. As to conditions: read-out: pA2 (converted).
The target of assay [2] is T1, Beta-1 adrenergic receptor. Nature of the assay: Activity at beta-1 adrenergic receptor. As to conditions: read-out: pA2 (converted).

T1 sequence (B0FL73 whole entry): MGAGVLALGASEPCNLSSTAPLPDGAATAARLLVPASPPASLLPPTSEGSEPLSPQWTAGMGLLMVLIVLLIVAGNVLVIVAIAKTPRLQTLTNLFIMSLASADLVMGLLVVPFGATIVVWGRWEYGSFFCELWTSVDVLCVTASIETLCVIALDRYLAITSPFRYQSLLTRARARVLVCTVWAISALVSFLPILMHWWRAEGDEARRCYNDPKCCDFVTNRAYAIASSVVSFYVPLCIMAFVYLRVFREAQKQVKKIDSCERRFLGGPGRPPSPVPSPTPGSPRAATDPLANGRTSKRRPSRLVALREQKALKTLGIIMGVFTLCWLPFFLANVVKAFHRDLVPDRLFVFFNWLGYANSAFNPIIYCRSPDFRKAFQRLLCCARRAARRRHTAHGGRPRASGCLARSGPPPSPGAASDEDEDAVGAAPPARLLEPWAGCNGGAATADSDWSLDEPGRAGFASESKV

Turning to `COCCOc1ccc(OCC(O)CNC(C)C)cc1` (stereo not given), the Kb in assay [1] is 398 nM.
As for `CCc1ccc(OCC(O)CNC(C)C)cc1` (stereo not given), the Kb in assay [2] is 63.1 nM.
For the compound `CC(C)NCC(O)COc1ccc(OCCOCCc2ccc(F)cc2)cc1` (stereo not given), in assay [2], the Kb was 6.31 nM.
On to `CC(C)NCC(O)COc1ccc(-c2nc(-c3cccs3)c[nH]2)cc1` (stereo not given), for which the Kb in assay [2] was 1.26 nM.
Still for that read-out and setting: as for `CC(C)NCC(O)COc1ccc(-c2ncc[nH]2)cc1` (stereo not given), the figure is 25.1 nM.
